Our source for the mass density, Normal boiling temperature and refractive index values is the NIST ThermoML archive (doi:10.1021/je101035p).

One may read the mass density as the mass of a sample divided by its volume. The term refractive index denotes the speed of light in vacuum divided by its phase velocity in the sample.

Numbers after ± are expanded uncertainties.

For data set [1] the following is noted: Liquid; for Normal boiling temperature: Distillation.
A short description of data set [2]: refractive index (Na D-line) (dimensionless). To be noted: 101.33 kPa, Liquid, Standard Abbe refractometry.

As for `C=CC(C)(CCC=C(C)C)OC(C)=O` (stereo not given) [linalool acetate], the mass density in data set [1] (293.2 K, 101.33 kPa, Vibrating tube method) turned out to be 895.06 ± 4.4 kg/m3. For the same molecule, the Normal boiling temperature in data set [1] is 220.00 ± 1.2 °C. In addition, the refractive index in data set [2] (294 K) stood at 1.45445 ± 0.0012.
In the case of `CCO` [ethanol], in data set [1], the Normal boiling temperature turned out to be 78.29 ± 1.1 °C. Moreover, the refractive index in data set [2] (293.2 K) came out at 1.36115 ± 0.0007.
